In US12565488B2, “Inhibitors of influenza virus replication” (COCRYSTAL PHARMA, INC., priority 2018, dated 2026) one finds EC50 data, which are given here for 48 compounds.

The structures appear in SMILES notation.

One experiment deals with Influenza type A (strain A/PR/8/34, ATCC VR-95). The experiment is described as follows: Influenza antiviral assay: inhibition of virus-induced cytopathic effects (CPE) in MDCK cells, XTT dye reduction. In kind it is cell-based. Conditions: Influenza A (H1N1) replication in MDCK cells, CPE reduction by XTT at 4 days post-infection; read-out: Influenza H1N1 affinity, EC50. On the technique in general: Damage to the host cells serves as the signal in cytopathic effect assays.
For `O=C(NCC1c2ccccc2COc2ccccc21)c1c(O)c(=O)ccn1CC1c2ccccc2COc2ccccc21` (stereo not drawn) [Compound 106], the EC50 is above 100 µM.
Same read-out and setting: the figure for `O=C(NCC1c2ccccc2COc2ccccc21)c1c(O)c(=O)ccn1CC1c2ccccc2COc2ccccc21` (stereo not drawn) [Compound 102] is above 100 µM.
Still for that read-out and setting: the figure for `O=C(NCC1c2ccccc2COc2ccccc21)c1c(O)c(=O)ccn1CC1c2ccccc2COc2ccccc21` (stereo not drawn) [Compound 50] is 1 to 10 µM; for `O=C(NCC1c2ccccc2COc2ccccc21)c1c(O)c(=O)ccn1CC1c2ccccc2COc2ccccc21` (stereo not drawn) [Compound 108] it is 1 to 10 µM.
Same read-out and setting: the value for `O=C(NCC1c2ccccc2COc2ccccc21)c1c(O)c(=O)ccn1CC1c2ccccc2COc2ccccc21` (stereo not drawn) [Compound 107] was above 100 µM.

The same experiment, now with this note: Influenza A virus, H1N1 / PR/8, MDCK, 96 h, Influenza A (H1N1) replication in MDCK cells, CPE reduction by XTT at 4 days post-infection; read-out: Influenza H1N1 affinity, EC50.
In the case of `O=C(O)c1c(O)c(=O)ccn1NC1c2cc(OC(F)(F)F)ccc2SCc2c1ccc(F)c2F` (stereo not drawn) [Compound 116], the EC50 was 10 to 100 µM.
The same measure, in the same setting: the value for `O=C(Nc1ccc(C(F)(F)F)cc1)c1c(O)c(=O)ccn1NC1c2ccccc2COc2ccccc21` (stereo not drawn) [Compound 35] was above 100 µM.
Same read-out and setting: the value for `O=C(O)c1c(O)c(=O)ccn1NC1c2ccccc2SCc2c1ccc(Br)c2Cl` (stereo not drawn) [Compound 97] was 1 to 10 µM; that for `NC(=O)c1c(O)c(=O)ccn1NC1c2ccccc2SCc2c1ccc(F)c2F` (stereo not drawn) [Compound 127] was 1 to 10 µM.
Turning to `CN(C1c2ccccc2COc2ccccc21)n1ccc(=O)c(O)c1C(=O)NCc1ccccc1` (stereo not drawn) [Compound 18], the EC50 was above 100 µM.
The same measure, in the same setting: the figure for `O=C(O)c1c(O)c(=O)ccn1NC1c2ccccc2CSc2cc(Cl)c(Cl)cc21` (stereo not drawn) [Compound 77] is 10 to 100 µM; for `O=C(O)c1c(O)c(=O)ccn1NC(c1cccc2ccccc12)c1cccc2ccccc12` [Compound 68] it is above 100 µM; for `O=C(NCc1ccc(-c2ccccc2)cc1)c1c(O)c(=O)ccn1NC1c2ccccc2COc2ccccc21` (stereo not drawn) [Compound 23, N-(Biphenyl-4-ylmethyl)-1-(6,11-dihydrodibenzo[b,e]oxepin-11-ylamino)-3-hydroxy-4-oxo-1,4-dihydropyridine-2-carboxamide] it is 1 to 10 µM.
On the same count and under the same terms, the value for `O=C(Nc1ccc(-c2ccccc2)cc1)c1c(O)c(=O)ccn1NC1c2ccccc2COc2ccccc21` (stereo not drawn) [Compound 36] was above 100 µM; that for `O=C(O)c1c(O)c(=O)ccn1NC(c1ccc(F)c(F)c1)c1ccc(F)c(F)c1` [Compound 105] was above 100 µM.
On the same count and under the same terms, the figure for `O=C(O)c1c(O)c(=O)ccn1NC1c2ccccc2OCc2c1ccc(Cl)c2Cl` (stereo not drawn) [Compound 99] is 1 to 10 µM; for `CNC(=O)c1c(O)c(=O)ccn1N(C)C1c2ccccc2COc2ccccc21` (stereo not drawn) [Compound 25] it is above 100 µM; for `O=C(O)c1c(O)c(=O)ccn1NC1c2ccccc2S(=O)(=O)Cc2c1ccc(F)c2F` (stereo not drawn) [Compound 126] it is 10 to 100 µM.
`COC(=O)c1c(O)c(=O)ccn1N(Cc1ccccc1)C1c2ccccc2COc2ccccc21` (stereo not drawn) [Compound 26]: the EC50 was above 100 µM.
On the same count and under the same terms, the value for `O=c1ccn(NC2c3ccccc3COc3ccccc32)cc1O` (stereo not drawn) [Compound 4] was above 100 µM; that for `O=C(O)c1c(O)c(=O)ccn1NC1c2ccccc2OCc2c1ccc(F)c2F` (stereo not drawn) [Compound 75] was 10 to 100 µM.
On the same count and under the same terms, the value for `O=C(O)c1c(O)c(=O)ccn1NC1c2cc(Cl)c(Cl)cc2CSc2ccccc21` (stereo not drawn) [Compound 117] was 10 to 100 µM; that for `O=C(O)c1c(O)c(=O)ccn1NC1c2ccc(-c3ccc(F)cc3)cc2SCc2c1ccc(F)c2F` (stereo not drawn) [Compound 123] was 10 to 100 µM; that for `CN(C1c2ccccc2COc2ccccc21)n1ccc(=O)c(O)c1C(=O)Nc1ccccc1` (stereo not drawn) [Compound 34] was above 100 µM.
Turning to `CN(Cc1ccccc1)C(=O)c1c(O)c(=O)ccn1NC1c2ccccc2COc2ccccc21` (stereo not drawn) [Compound 6], the EC50 lay within 1 to 10 µM.
Still for that read-out and setting: the figure for `CCOC(=O)c1cn(NC2c3ccccc3COc3ccccc32)c(C(=O)OCC)c(O)c1=O` (stereo not drawn) [Compound 104] is above 100 µM.
Same read-out and setting: the figure for `O=C(Nc1ccccc1)c1c(O)c(=O)ccn1NC1c2ccccc2COc2ccccc21` (stereo not drawn) [Compound 11] is above 100 µM; for `CNC(=O)c1c(O)c(=O)ccn1N(Cc1ccccc1)C1c2ccccc2COc2ccccc21` (stereo not drawn) [Compound 72] it is above 100 µM; for `O=C(O)c1cn(NC2c3ccccc3COc3ccccc32)c(C(=O)O)c(O)c1=O` (stereo not drawn) [Compound 109] it is 10 to 100 µM.
Same read-out and setting: the figure for `CNC(=O)c1c(O)c(=O)ccn1NC1CCN(C)c2ccccc21` (stereo not drawn) [Compound 45] is above 100 µM.
As to `CNC(=O)c1c(O)c(=O)ccn1NC1CCN(Cc2ccccc2)c2ccccc21` (stereo not drawn) [Compound 44], the half-maximal effective concentration (EC50) was above 100 µM.
Same read-out and setting: the figure for `O=C(NCC(F)(F)F)c1c(O)c(=O)ccn1NC1c2ccccc2SCc2c1ccc(F)c2F` (stereo not drawn) [Compound 42, 1-((7,8-difluoro-6,11-dihydrodibenzo[b,e]thiepin-11-yl)amino)-3-hydroxy-4-oxo-N-(2,2,2-trifluoroethyl)-1,4-dihydropyridine-2-carboxamide] is 1 to 10 µM.
On the same count and under the same terms, the value for `O=C(O)c1c(O)c(=O)ccn1NC1CCCOc2ccccc21` (stereo not drawn) [Compound 1] was 10 to 100 µM; that for `CN(Cc1ccccc1)C(=O)c1c(O)c(=O)ccn1CC1c2ccccc2COc2ccccc21` (stereo not drawn) [Compound 57] was above 100 µM.
`O=C(O)c1c(O)c(=O)ccn1NC1c2ccccc2SCc2c1ccc(F)c2Br` (stereo not drawn) [Compound 96]: the EC50 was 0.1 to 1 µM.
On the same count and under the same terms, the value for `O=C(NO)c1c(O)c(=O)ccn1NC1c2ccccc2SCc2c1ccc(F)c2F` (stereo not drawn) [Compound 129] was 1 to 10 µM; that for `CN(C(c1ccccc1)c1ccccc1)n1ccc(=O)c(O)c1` [Compound 39] was above 100 µM.
The same measure, in the same setting: the figure for `O=C(NCc1ccc2ccccc2c1)c1c(O)c(=O)ccn1NC1c2ccccc2COc2ccccc21` (stereo not drawn) [Compound 22] is 1 to 10 µM; for `O=C(O)c1c(O)c(=O)ccn1NC(c1ccccc1)c1ccc2ccccc2c1` (stereo not drawn) [Compound 82] it is 10 to 100 µM.
As for `O=C(O)c1cn(CC2c3ccccc3COc3ccccc32)c(C(=O)O)c(O)c1=O` (stereo not drawn) [Compound 73], the EC50 was above 100 µM.
Still for that read-out and setting: the figure for `O=C(NCCOCCO)c1c(O)c(=O)ccn1NC1CCCN(Cc2ccccc2)c2ccccc21` (stereo not drawn) [Compound 17] is above 100 µM; for `CNC(=O)c1c(O)c(=O)ccn1NC1c2ccccc2SCc2c1ccc(F)c2F` (stereo not drawn) [Compound 41] it is above 100 µM; for `O=C(O)c1c(O)c(=O)ccn1NC1c2ccccc2SCc2c1ccc(F)c2F` (stereo not drawn) [Compound 40, 1-((7,8-difluoro-6,11-dihydrodibenzo[b,e]thiepin-11-yl)amino)-3-hydroxy-4-oxo-1,4-dihydropyridine-2-carboxylic acid] it is 1 to 10 µM.
On the same count and under the same terms, the figure for `O=C(NCc1cccc(-c2ccccc2)c1)c1c(O)c(=O)ccn1NC1c2ccccc2COc2ccccc21` (stereo not drawn) [Compound 33] is above 100 µM.
Still for that read-out and setting: the value for `O=C(O)c1c(O)c(=O)ccn1NC1c2ccccc2CSc2ccccc21` (stereo not drawn) [Compound 59] was 10 to 100 µM; that for `O=C(O)c1c(O)c(=O)ccn1NC1c2ccc(F)c(F)c2CSc2c(-c3ccc(F)cc3)cccc21` (stereo not drawn) [Compound 122] was above 100 µM.
For `O=C(O)c1c(O)c(=O)ccn1NC1c2ccccc2OCc2c(F)cccc21` (stereo not drawn) [Compound 66], the EC50 was in the range of 10 to 100 µM.

The experiment is the same for the next values; noted with them: Influenza A virus, H1N1 / PR/8, MDCK, 96 h, read-out: Influenza H1N1 affinity, EC50.
For `CNC(=O)c1cn(CC2c3ccccc3COc3ccccc32)c(C(=O)NC)c(O)c1=O` (stereo not drawn) [Compound 65, 1-((6,11-dihydrodibenzo[b,e]oxepin-11-yl)methyl)-3-hydroxy-N2,N5-dimethyl-4-oxo-1,4-dihydropyridine-2,5-dicarboxamide], the EC50 was above 100 µM.

For orientation: EC50 means the concentration at which the effect is half-maximal.
